Each structure is given as a SMILES string.

The subject of test [1] is human lung cancer strain NCI-H441. The class given is cell-based. In outline: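 Step one: dispense the test compound in serial DMSO dilutions. Step three: add the reagent and measure […].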
Another test deals with HRAS wild-type protein (Homo sapiens, UniProt P01112). Kind of test: Binding to HRAS by surface plasmon resonance (SPR), KD and KD ratio to KRAS. Conditions: ratio of KD for HRAS wild-type protein to KD for KRAS. In outline: (§1)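 Captured GDP-RAS (~100–300 RU) was exposed to increasing compound concentrations, 75 s per step, in running buffer with 10 µM GDP, 10 mM MgCl2 and 4% DMSO at pH 7.4.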

Test [2] addresses GDP-bound NRAS wild-type protein (Homo sapiens, UniProt P01111). The experiment in a line: Binding to NRAS by surface plasmon resonance (SPR), KD and KD ratio to KRAS. As to conditions: ratio of KD for GDP-bound NRAS wild-type protein to KD for KRAS. In outline: as §1

Sequence of HRAS wild-type protein (P01112 whole entry): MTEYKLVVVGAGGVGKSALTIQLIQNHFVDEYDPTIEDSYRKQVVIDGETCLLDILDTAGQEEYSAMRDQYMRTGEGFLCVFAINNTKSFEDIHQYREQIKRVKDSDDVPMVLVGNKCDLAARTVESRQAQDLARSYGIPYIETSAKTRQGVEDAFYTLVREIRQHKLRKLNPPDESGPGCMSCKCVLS
Sequence of GDP-bound NRAS wild-type protein (P01111 whole entry): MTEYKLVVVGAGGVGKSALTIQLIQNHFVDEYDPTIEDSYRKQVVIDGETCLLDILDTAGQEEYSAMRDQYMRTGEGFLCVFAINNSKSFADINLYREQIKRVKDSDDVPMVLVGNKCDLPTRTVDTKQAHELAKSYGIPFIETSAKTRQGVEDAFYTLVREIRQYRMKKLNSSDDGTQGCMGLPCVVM

`CC[C@H](C)[C@@H]1NC(=O)[C@@H]2CCCCCCc3ccc(cc3)C[C@@H](C(=O)N(C)CC(=O)N[C@@H](CCc3ccc(C(F)(F)F)c(OC)c3)C(=O)N3C[C@H](OC(C)C)C[C@H]3C(=O)NC3(CC(C)(C)C3)C(=O)N(C)[C@@H](C3CCCC3)C(=O)N(C)[C@H](C(=O)N(C)C)CC(=O)N2C)N2CC/C=C\C[C@@H](C2=O)N(C)C(=O)CN(C)C1=O` [PP3067] returned an IC50 in test [1] of 1.1 nM. In addition, the “HRAS /KRAS” value at HRAS wild-type protein is “B (a compound having 3 or more and less than 10 is denoted as B)”. Besides, in test [2], the “NRAS /KRAS” value was “A (a compound having 10 or more and less than 20 is denoted as A)”.
`CC[C@H](C)[C@@H]1NC(=O)[C@@H]2CCCCCCc3ccc(cc3)C[C@@H](C(=O)N(C)CC(=O)N[C@@H](CCc3ccc(C(F)(F)F)c(OC)c3)C(=O)N3C[C@H](OC4CCC4)C[C@H]3C(=O)NC3(CC(C)(C)C3)C(=O)N(C)[C@@H](C3CCCC3)C(=O)N(C)[C@H](C(=O)N(C)C)CC(=O)N2C)N2CC/C=C\C[C@@H](C2=O)N(C)C(=O)CN(C)C1=O` [PP3068]: 4.5 nM corresponded to half-maximal inhibition in test [1] (IC50). The “HRAS /KRAS” value at HRAS wild-type protein is “B (a compound having 3 or more and less than 10 is denoted as B)”. In test [2], the “NRAS /KRAS” value was “A (a compound having 10 or more and less than 20 is denoted as A)”.
For the molecule `CC[C@H](C)[C@@H]1NC(=O)[C@@H]2CCCCCCc3ccc(cc3)C[C@@H](C(=O)N(C)CC(=O)N[C@@H](CCc3ccc(C(F)(F)F)c(OC)c3)C(=O)N3CC4(CC4)C[C@H]3C(=O)NC3(CC(C)(C)C3)C(=O)N(C)[C@@H](C3CCCC3)C(=O)N(C)[C@H](C(=O)N(C)C)CC(=O)N2C)N2CC/C=C\C[C@@H](C2=O)N(C)C(=O)CN(C)C1=O` [PP3069], in test [1], the 50% inhibitory concentration (IC50) worked out at 2.1 nM. Besides, the “HRAS /KRAS” value on HRAS wild-type protein was “B (a compound having 3 or more and less than 10 is denoted as B)”. Moreover, the “NRAS /KRAS” value in test [2] is “A (a compound having 10 or more and less than 20 is denoted as A)”.
`CCO[C@@H]1C[C@H]2C(=O)NC3(CC(C)(C)C3)C(=O)N(C)[C@@H](C3CCCC3)C(=O)N(C)[C@H](C(=O)N(C)C)CC(=O)N(C)[C@H]3CCCCCCc4ccc(cc4)C[C@@H](C(=O)N(C)CC(=O)N[C@@H](CCc4ccc(Cl)c(Cl)c4)C(=O)N2C1)N1CC/C=C\C[C@@H](C1=O)N(C)C(=O)CN(C)C(=O)[C@H]([C@@H](C)CC)NC3=O` [PP3071] came in with a half-inhibitory concentration (IC50) in test [1] of 6.6 nM. Also, the “HRAS /KRAS” value at HRAS wild-type protein was “B (a compound having 3 or more and less than 10 is denoted as B)”. In addition, the “NRAS /KRAS” value in test [2] was “A (a compound having 10 or more and less than 20 is denoted as A)”.
In test [1], `CC[C@H](C)[C@@H]1NC(=O)[C@@H]2CCCCCc3ccc(cc3)C[C@@H](C(=O)N(C)CC(=O)N[C@@H](CCc3ccc(C(F)(F)F)c(OC)c3)C(=O)N3C[C@H](OC(C)C)C[C@H]3C(=O)NC3(CC(C)(C)C3)C(=O)N(C)[C@@H](C3CCCC3)C(=O)N(C)[C@H](C(=O)N(C)C)CC(=O)N2C)N2CC/C=C\C[C@@H](C2=O)N(C)C(=O)CN(C)C1=O` [PP3072] yielded an IC50 of 2.6 nM. For the same molecule, at HRAS wild-type protein, the “HRAS /KRAS” value is “B (a compound having 3 or more and less than 10 is denoted as B)”. Besides, the “NRAS /KRAS” value in test [2] was “A (a compound having 10 or more and less than 20 is denoted as A)”.
As for `CC[C@H](C)[C@@H]1NC(=O)[C@@H]2CCCCCc3ccc(cc3)C[C@@H](C(=O)N(C)CC(=O)N[C@@H](CCc3ccc(C(F)(F)F)c(OC)c3)C(=O)N3C[C@H](OC4CCC4)C[C@H]3C(=O)NC3(CC(C)(C)C3)C(=O)N(C)[C@@H](C3CCCC3)C(=O)N(C)[C@H](C(=O)N(C)C)CC(=O)N2C)N2CC/C=C\C[C@@H](C2=O)N(C)C(=O)CN(C)C1=O` [PP3073], it took 1.9 nM to reach half-maximal inhibition in test [1] (IC50). Also, at HRAS wild-type protein, the “HRAS /KRAS” value was “A (a compound having 10 or more and less than 20 is denoted as A)”. For the same molecule, the “NRAS /KRAS” value in test [2] was “A (a compound having 10 or more and less than 20 is denoted as A)”.
The molecule `CC[C@H](C)[C@@H]1NC(=O)[C@@H]2CCCCCc3ccc(cc3)C[C@@H](C(=O)N(C)CC(=O)N[C@@H](CCc3ccc(C(F)(F)F)c(OC)c3)C(=O)N3CC4(CC4)C[C@H]3C(=O)NC3(CC(C)(C)C3)C(=O)N(C)[C@@H](C3CCCC3)C(=O)N(C)[C@H](C(=O)N(C)C)CC(=O)N2C)N2CC/C=C\C[C@@H](C2=O)N(C)C(=O)CN(C)C1=O` [PP3074] yielded an IC50 in test [1] of 2.4 nM. Besides, the “HRAS /KRAS” value on HRAS wild-type protein is “A (a compound having 10 or more and less than 20 is denoted as A)”. Further, the “NRAS /KRAS” value in test [2] is “A (a compound having 10 or more and less than 20 is denoted as A)”.
Turning to `CCO[C@@H]1C[C@H]2C(=O)NC3(CC(C)(C)C3)C(=O)N(C)[C@@H](C3CCCC3)C(=O)N(C)[C@H](C(=O)N(C)C)CC(=O)N(C)[C@H]3CCCCCc4ccc(cc4)C[C@@H](C(=O)N(C)CC(=O)N[C@@H](CCc4ccc(C(F)(F)F)c(OC)c4)C(=O)N2C1)N1CC/C=C\C[C@@H](C1=O)N(C)C(=O)CN(C1CC1)C(=O)[C@H]([C@@H](C)CC)NC3=O` [PP3075], the IC50 in test [1] amounted to 1.1 nM. At HRAS wild-type protein, the “HRAS /KRAS” value is “A (a compound having 10 or more and less than 20 is denoted as A)”. Further, in test [2], the “NRAS /KRAS” value was “A (a compound having 10 or more and less than 20 is denoted as A)”.
Molecule `CCO[C@@H]1C[C@H]2C(=O)NC3(CC(C)(C)C3)C(=O)N(C)[C@@H](C3CCCC3)C(=O)N(C)[C@H](C(=O)N(C)C)CC(=O)N(C)[C@H]3CCCCCc4ccc(cc4)C[C@@H](C(=O)N(C)CC(=O)N[C@@H](CCc4ccc(Cl)c(Cl)c4)C(=O)N2C1)N1CC/C=C\C[C@@H](C1=O)N(C)C(=O)CN(C)C(=O)[C@H]([C@@H](C)CC)NC3=O` [PP3076] registered a half-inhibitory concentration (IC50) in test [1] of 4.1 nM. In addition, the “HRAS /KRAS” value on HRAS wild-type protein was “A (a compound having 10 or more and less than 20 is denoted as A)”. In addition, the “NRAS /KRAS” value in test [2] is reported as “AA (a compound having 20 or more is denoted as AA)”.
`CCCO[C@@H]1C[C@H]2C(=O)NC3(CC(C)(C)C3)C(=O)N(C)[C@@H](C3CCCC3)C(=O)N(C)[C@H](C(=O)N(C)C)CC(=O)N(C)[C@H]3CCCCc4ccc(cc4)C[C@@H](C(=O)N(C)CC(=O)N[C@@H](CCc4ccc(C(F)(F)F)c(OC)c4)C(=O)N2C1)N1CC/C=C\C[C@@H](C1=O)N(C)C(=O)CN(C)C(=O)[C@H]([C@@H](C)CC)NC3=O` [PP3077] yielded a half-inhibitory concentration (IC50) in test [1] of 0.8 nM. Besides, on HRAS wild-type protein, the “HRAS /KRAS” value was “B (a compound having 3 or more and less than 10 is denoted as B)”. Moreover, the “NRAS /KRAS” value in test [2] is “A (a compound having 10 or more and less than 20 is denoted as A)”.
Consider `CC[C@H](C)[C@@H]1NC(=O)[C@@H]2CCCCc3ccc(cc3)C[C@@H](C(=O)N(C)CC(=O)N[C@@H](CCc3ccc(C(F)(F)F)c(OC)c3)C(=O)N3C[C@H](OC(C)C)C[C@H]3C(=O)NC3(CC(C)(C)C3)C(=O)N(C)[C@@H](C3CCCC3)C(=O)N(C)[C@H](C(=O)N(C)CC)CC(=O)N2C)N2CC/C=C\C[C@@H](C2=O)N(C)C(=O)CN(C)C1=O` [PP3078], for which, in test [1], the IC50 came to 2.3 nM. For the same molecule, the “HRAS /KRAS” value at HRAS wild-type protein is “B (a compound having 3 or more and less than 10 is denoted as B)”. Also, the “NRAS /KRAS” value in test [2] was “A (a compound having 10 or more and less than 20 is denoted as A)”.
In the case of `CC[C@H](C)[C@@H]1NC(=O)[C@@H]2CCCCc3ccc(cc3)C[C@@H](C(=O)N(C)CC(=O)N[C@@H](CCc3ccc(C(F)(F)F)c(OC)c3)C(=O)N3C[C@H](OC4CCCC4)C[C@H]3C(=O)NC3(CC(C)(C)C3)C(=O)N(C)[C@@H](C3CCCC3)C(=O)N(C)[C@H](C(=O)N(C)C)CC(=O)N2C)N2CC/C=C\C[C@@H](C2=O)N(C)C(=O)CN(C)C1=O` [PP3080], the half-maximal inhibitory concentration (IC50) in test [1] turned out to be 4.3 nM. The “HRAS /KRAS” value at HRAS wild-type protein was “B (a compound having 3 or more and less than 10 is denoted as B)”. Moreover, the “NRAS /KRAS” value in test [2] was “A (a compound having 10 or more and less than 20 is denoted as A)”.
In turn, `CC[C@H](C)[C@@H]1NC(=O)[C@@H]2CCCCc3ccc(cc3)C[C@@H](C(=O)N(C)CC(=O)N[C@@H](CCc3ccc(C(F)(F)F)c(OC)c3)C(=O)N3CC4(CC4)C[C@H]3C(=O)NC3(CC(C)(C)C3)C(=O)N(C)[C@@H](C3CCCC3)C(=O)N(C)[C@H](C(=O)N(C)CC)CC(=O)N2C)N2CC/C=C\C[C@@H](C2=O)N(C)C(=O)CN(C)C1=O` [PP3081] yielded an IC50 in test [1] of 1.9 nM. Also, the “HRAS /KRAS” value on HRAS wild-type protein is “B (a compound having 3 or more and less than 10 is denoted as B)”. Further, in test [2], the “NRAS /KRAS” value was “A (a compound having 10 or more and less than 20 is denoted as A)”.
On to `CCCO[C@@H]1C[C@H]2C(=O)NC3(CC(C)(C)C3)C(=O)N(C)[C@@H](C3CCCC3)C(=O)N(C)[C@H](C(=O)N(C)C)CC(=O)N(C)[C@H]3CCCCc4ccc(cc4)C[C@@H](C(=O)N(C)CC(=O)N[C@@H](CCc4ccc(C(F)(F)F)c(OC)c4)C(=O)N2C1)N1CC/C=C\C[C@@H](C1=O)N(C)C(=O)CN(C1CC1)C(=O)[C@H]([C@@H](C)CC)NC3=O` [PP3082], for which half-maximal inhibition in test [1] (IC50) required 1.7 nM. In addition, at HRAS wild-type protein, the “HRAS /KRAS” value is “B (a compound having 3 or more and less than 10 is denoted as B)”. Besides, the “NRAS /KRAS” value in test [2] was “B (a compound having 3 or more and less than 10 is denoted as B)”.
Molecule `CC[C@H](C)[C@@H]1NC(=O)[C@@H]2CCCc3ccc(cc3)C[C@@H](C(=O)N(C)CC(=O)N[C@@H](CCc3ccc(C(F)(F)F)c(OC)c3)C(=O)N3C[C@H](OC4CCC4)C[C@H]3C(=O)NC3(CC(C)(C)C3)C(=O)N(C)[C@@H](C3CCCC3)C(=O)N(C)[C@H](C(=O)N(C)CC)CC(=O)N2C)N2CC/C=C\C[C@@H](C2=O)N(C)C(=O)CN(C)C1=O` [PP3085] registered a half-inhibitory concentration (IC50) in test [1] of 6.3 nM. The “HRAS /KRAS” value at HRAS wild-type protein was “B (a compound having 3 or more and less than 10 is denoted as B)”. Also, the “NRAS /KRAS” value in test [2] was “A (a compound having 10 or more and less than 20 is denoted as A)”.

The record behind these values is patent EP4603105A1, “PHARMACEUTICAL COMPOSITION CONTAINING CYCLIC COMPOUND HAVING SELECTIVE KRAS INHIBITORY EFFECT AGAINST HRAS AND NRAS” (CHUGAI SEIYAKU KABUSHIKI KAISHA, priority 2022, dated 2024).
